Measured values: patent publication US9073879B2, “Oxazole derivatives useful as modulators of FAAH” (MERCK SHARP & DOHME CORP., priority 2010, dated 2015)

What was measured:
human FAAH [1] = biological target: T1, human FAAH (Homo sapiens, UniProt O00519); experiment: FAAH whole cell assay (human Whole cell, FAAH_CHO, AAMCA substrate); format: cell-based; details: CHO cells expressing human FAAH, whole cell format; read-out: human cell_IC50
T1 construct: The full length FAAH was subcloned into the mammalian expression vector, pcDEF.neo, using XbaI and EcoRI restriction sites; expressed in transfected cells
T1 sequence (O00519 1-579): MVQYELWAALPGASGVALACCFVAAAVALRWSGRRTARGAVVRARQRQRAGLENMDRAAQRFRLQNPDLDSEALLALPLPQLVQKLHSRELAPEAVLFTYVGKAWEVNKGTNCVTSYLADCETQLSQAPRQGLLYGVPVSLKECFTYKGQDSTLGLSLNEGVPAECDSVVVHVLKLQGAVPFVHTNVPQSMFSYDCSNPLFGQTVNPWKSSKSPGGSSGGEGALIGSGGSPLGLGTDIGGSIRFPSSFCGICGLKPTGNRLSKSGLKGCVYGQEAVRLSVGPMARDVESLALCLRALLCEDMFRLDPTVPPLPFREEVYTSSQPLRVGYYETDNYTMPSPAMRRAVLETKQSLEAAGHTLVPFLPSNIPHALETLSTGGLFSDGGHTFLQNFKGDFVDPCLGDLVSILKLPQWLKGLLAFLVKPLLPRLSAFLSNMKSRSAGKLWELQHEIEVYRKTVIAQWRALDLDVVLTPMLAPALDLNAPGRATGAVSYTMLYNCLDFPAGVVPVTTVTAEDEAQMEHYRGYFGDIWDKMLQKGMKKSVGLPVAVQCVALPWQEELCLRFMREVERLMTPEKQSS
Description: (§1) To assist in assay development stable cell lines for human, murine and rat full length FAAH were developed. Human FAAH cDNA (Accession No: NM_001441.1) was purchased from Origene (Rockville, Md.). The full length FAAH was subcloned into the mammalian expression vector, pcDEF.neo, using XbaI and EcoRI restriction sites and used for stable cell line generation.
Murine (accession number NM_010173) and Rat FAAH (accession number NM_024132) was amplified by reverse transcriptase polymerase chain reaction (RT-PCR) from brain cDNA (BD Biosciences, San Jose, Calif.) using primers 1 and 2 or primers 1 and 3 respectively (see Table). The resulting PCR product was ligated into pCR4 TOPO and DNA sequence confirmed. The full length murine FAAH was subcloned into the mammalian expression vector, pcDEFneo using either EcoRI (murine) or KpnI and EcoRI (rat) restriction sites. Chinese hamster ovary cells (CHO) were transfected following manufacturers protocol (AMAXA). Forty eight hours post transfection, cells were trypsinized and transferred to 96 well plates in Iscove's DMEM media supplemented with 2 mM Glutamine, 10% fetal calf serum, 1 mg/ml geneticin and HT Supplement (0.1 mM sodium hypoxanthine, 0.016 mM thymidine) in order to isolate single clones. Following selection in geneticin, individual clones were selected and FAAH activity was assessed using a whole cell fluorescent anandamide assay, modified from Ramarao et al (2005). Following removal of tissue culture media cells were dislodged following addition of Cellstripper (Mediatech, Inc. Manassas, Va.) and transferred to 96 well black clear bottom assay plate, centrifuged at 1,000 rpm for 3 mins and media removed and replaced with assay buffer (50 mM Tris pH8.0, 1 mM EDTA, 0.1% fatty acid free BSA). The reaction was initiated by addition of fluorescent substrate, AMC Arachidonoyl Amide (Cayman Chemical, Ann Arbor, Mich.) to 1 μM and reaction allowed to proceed for 2 hours at room temperature. Release of fluorescence was monitored in a CytoFluor Multiplate Reader. Cells expressing the highest amount of FAAH activity were selected for study with FAAH inhibitors.
(§2) Assays are performed on either cell lysate or microsome fractions prepared as described or in whole cell format employing either the fluorescent substrate AAMCA (Cayman chemical, Ann Arbor, Mich.) or ^3H-anandamide ([ETHANOLAMINE-1-3H] American Radiolabeled Chemicals; 1 mCi/ml). The cell lysate or microsome assay is performed in black PerkinElmer OptiPlates-384F by adding FAAH_CHO (whole cell (shown as human Whole cell or Human WC), cell lysate (shown as human lysate of human LY) or microsome) in assay buffer (50 mM Phosphate, pH 8.0, 1 mM EDTA, 200 mM KCl, 0.2% glycerol, 0.1% fatty acid free BSA) to each well, followed by either DMSO or compound and allowed to incubate at 22-25° C. for fifteen minutes. AAMCA substrate was used to achieve a final concentration of 1 μM and reaction allowed to proceed at room temperature for 1-3 hours. Fluorescent release as a measure of FAAH activity was monitored by reading the plate in an Envision plate Reader (Ex: 360/40 nM; Em: 460/40 nM). Whole cell assay is conducted with cells harvested after rinsing tissue culture flasks three times with Ca^++Mg^++ free PBS, incubating for 10 min in Enzyme free dissociation media and centrifuging for 5 minutes at 1,000 rpm in table top centrifuge. Cells are resuspended in assay buffer at desired cell number in (4×10^4 cells/assay in 96-well format; 1×10^4 cells/assay in 384-well format) and assayed as described.

human FAAH [2] = biological target: T1, human FAAH; experiment: FAAH cell lysate assay (human lysate, FAAH_CHO, AAMCA substrate); format: biochemical; details: lysate of CHO cells expressing human FAAH; read-out: human lysate_IC50
Description: as §1
CHO cells expressing FAAH were used to prepare either crude cell lysate or microsome fractions. To harvest cells, tissue culture media was decanted, the monolayer washed three times with Ca^++Mg^++ free PBS and cells recovered after 15 mm in enzyme free dissociation media (Millipore Corp, Billerica, Mass.). Cells were collected by centrifuging at 2000 rpm for 15 min. and the cell pellet re-suspended with 50 mM HEPES (pH 7.4) containing 1 mM EDTA and the protease inhibitors aprotinin (1 mg/ml) and leupeptin (100 μM). The suspension was sonicated at 4° C. and the cell lysate recovered after centrifuging at 12,000×g (14,600 rpm, SS34 rotor) for 20 min at 4° C. to form a crude pellet of cell debris, nuclei, peroxisomes, lysosomes, and mitochondria; the supernatant or cell lysate was used for FAAH enzyme assay. In some cases, microsomes fractions enriched in FAAH were prepared by centrifuging the cell lysate further at 27,000 rpm (100,000×g) in SW28 rotor for 50 minutes at 4° C. The pellet containing FAAH-enriched microsomes was re-suspend in 50 mM HEPES, (pH 7.4) 1 mM EDTA, and any remaining DNA sheared by passage of material through a 23 gauge needle and aliquots of enzyme were store at −80° C. prior to use.
(American Radiolabeled Chemicals; 1 mCi/ml) with FAAH (Life Sciences (1995), 56, 1999-2005 and Journal of Pharmacology and Experimented Therapeutics (1997), 283, 729-734), Analytical. Biochemistry (2003), 318:270-5. In addition, routine assays were performed monitoring hydrolysis of araehidonyl-7-amino-4-methylcoumarin amide (AAMCA) by following increase in fluorescence upon release of 7-amino 4-methyl coumarin (λEX=355 nm, (λEM=460 nm). Analytical. Biochemistry (2005). 343:143-51
as §2

| SMILES | IC50 (human FAAH [1]) | IC50 (human FAAH [2]) |
| --- | --- | --- |
| CS(=O)(=O)c1ccc(NC(=O)c2nc(-c3ccc(F)cc3)oc2Sc2ccc(Cl)cn2)cc1 [Example A5.1, 5-[(5-chloropyridin-2-yl)sulfanyl]-2-(4-fluorophenyl)-N-[4-(methylsulfonyl)phenyl]-1,3-oxazole-4-carboxamide] | 388 nM | 61 nM |
| CS(=O)(=O)N1CCC(NC(=O)c2nc(-c3ccc(F)cc3)oc2Sc2ccc(Cl)cn2)CC1 [Example A5.2, 5-[(5-chloropyridin-2-yl)sulfanyl]-2-(4-fluorophenyl)-N-[1-(methylsulfonyl)piperidin-4-yl]-1,3-oxazole-4-carboxamide] | 400 nM | 57 nM |
| CSc1ccc(OCc2nc(-c3ccc(F)cc3)oc2Sc2ccc(Cl)cn2)cc1 [Example B2.2, 5-chloro-2-{[2-(4-fluorophenyl)-4-{[4-(methylsulfanyl)phenoxy]methyl}-1,3-oxazol-5-yl]sulfanyl}pyridine] | 507 nM | 55 nM |
| CS(=O)(=O)c1ccc(OCc2nc(-c3ccc(F)cc3)oc2Sc2ccc(Cl)cn2)cc1 [Example B2.3, 5-chloro-2-{[2-(4-fluorophenyl)-4-{[4-(methylsulfonyl)phenoxy]methyl}-1,3-oxazol-5-yl]sulfanyl}pyridine] | 535 nM | 54 nM |
| Fc1ccc(-c2nc(COc3ccc4c(c3)OCO4)c(Sc3ccc(Cl)cn3)o2)cc1 [Example B2.4, 2-({4-[(1,3-benzodioxol-5-yloxy)methyl]-2-(4-fluorophenyl)-1,3-oxazol-5-yl}sulfanyl)-5-chloropyridine] | 224 nM | 24 nM |
| COC(=O)c1ccc(OCc2nc(-c3ccc(F)cc3)oc2Sc2ccc(Cl)cn2)cn1 [Example B2.5, methyl 5-({5-[(5-chloropyridin-2-yl)sulfanyl]-2-(4-fluorophenyl)-1,3-oxazol-4-yl}methoxy)pyridine-2-carboxylate] | 143 nM | 20 nM |
| N#Cc1ccc(OCc2nc(-c3ccc(F)cc3)oc2Sc2ccc(Cl)cn2)cc1 [Example B2.6, 4-({5-[(5-chloropyridin-2-yl)sulfanyl]-2-(4-fluorophenyl)-1,3-oxazol-4-yl}methoxy)benzonitrile] | 360 nM | 47 nM |
| CC(O)c1ccc(OCc2nc(-c3ccc(F)cc3)oc2Sc2ccc(Cl)cn2)cc1 (stereo not drawn) [Example B2.7, 1-[4-({5-[(5-chloropyridin-2-yl)sulfanyl]-2-(4-fluorophenyl)-1,3-oxazol-4-yl}methoxy)phenyl]ethanol] | 201 nM | 12 nM |
| OC(c1ccc(OCc2nc(-c3ccc(F)cc3)oc2Sc2ccc(Cl)cn2)cc1)C(F)(F)F (stereo not drawn) [Example B2.8, 1-[4-({5-[(5-chloropyridin-2-yl)sulfanyl]-2-(4-fluorophenyl)-1,3-oxazol-4-yl}methoxy)phenyl]-2,2,2-trifluoroethanol] | 513 nM | 130 nM |
| Fc1ccc(-c2nc(COc3ccc4[nH]ccc4c3)c(Sc3ccc(Cl)cn3)o2)cc1 [Example B2.10, 5-({5-[(5-chloropyridin-2-yl)sulfanyl]-2-(4-fluorophenyl)-1,3-oxazol-4-yl}methoxy)-1H-indole] | 298 nM | 56 nM |
| O[C@H]1CC[C@H](NCc2nc(C3CCOCC3)oc2Sc2ccc(Cl)cc2)CC1 [Example B5.13, trans-4-[({5-[(4-chlorophenyl)sulfanyl]-2-(tetrahydro-2H-pyran-4-yl)-1,3-oxazol-4-yl}methyl)amino] cyclohexanol] | 2830 nM | – |

Compounds with a lower IC50 (human FAAH [1]), results first:

| IC50 (human FAAH [1]) | IC50 (human FAAH [2]) | SMILES |
| --- | --- | --- |
| 39 nM | 10 nM | COC(=O)c1ccc(NC(=O)c2nc(-c3ccc(F)cc3)oc2Sc2ccc(Cl)cn2)cc1 [Example A5.3, methyl 4-[({5-[(5-chloropyridin-2-yl)sulfanyl]-2-(4-fluorophenyl)-1,3-oxazol-4-yl}carbonyl)amino]benzoate] |
| 20 nM | 3 nM | Fc1ccc(-c2nc(COc3ccc4[nH]ncc4c3)c(Sc3ccc(Cl)cn3)o2)cc1 [Example B2.1, 5-({5-[(5-chloropyridin-2-yl)sulfanyl]-2-(4-fluorophenyl)-1,3-oxazol-4-yl}methoxy)-1H-indazole] |
| 10 nM | 2 nM | COC(=O)c1ccc(OCc2nc(-c3ccc(F)cc3)oc2Sc2ccc(Cl)cn2)nc1 [Example B2.9, methyl 6-({5-[(5-chloropyridin-2-yl)sulfanyl]-2-(4-fluorophenyl)-1,3-oxazol-4-yl}methoxy)pyridine-3-carboxylate] |
| 97 nM | – | Clc1ccc(Sc2oc(C3CCOCC3)nc2COc2ccc3[nH]ncc3c2)cc1 [Example B2.17, 5-({5-[(4-chlorophenyl)sulfanyl]-2-(tetrahydro-2H-pyran-4-yl)-1,3-oxazol-4-yl}methoxy)-1H-indazole] |
| 50 nM | – | COC(=O)[C@H]1CC[C@@H](NCc2nc(-c3ccc(F)cc3)oc2Sc2ccc(Cl)cn2)CC1 [Example B5.11, methyl cis-4-[({5-[(5-chloropyridin-2-yl)sulfanyl]-2-(4-fluorophenyl)-1,3-oxazol-4-yl}methyl)amino] cyclohexanecarboxylate] |
| 27 nM | – | COC(=O)[C@H]1CC[C@H](NCc2nc(C3CCOCC3)oc2Sc2ccc(Cl)cc2)CC1 [Example B5.14, methyl trans-4-[({5-[(4-chlorophenyl)sulfanyl]-2-(tetrahydro-2H-pyran-4-yl)-1,3-oxazol-4-yl}methyl)amino] cyclohexanecarboxylate] |
